Values joined by “and” are separate entries in the source; they are usually repeats but may differ in a detail not shown here. Equal values may be shown once. Read-outs that look alike come from different tables or passages of the source.
Legend:
[1] = test system: oxytocin-induced uterine contractility; settings: murine model, preliminary work by the group; ref [10]; cited from earlier work
[2] = Progesterone metabolism in pooled human liver microsomes
[3] = human, microsomes, pH 7.4
recombinant human CYP3A4 = recombinant human CYP3A4 (Homo sapiens, UniProt P08684); settings: pH 7.4
Sequence of recombinant human CYP3A4 (P08684 2-503 limits assumed): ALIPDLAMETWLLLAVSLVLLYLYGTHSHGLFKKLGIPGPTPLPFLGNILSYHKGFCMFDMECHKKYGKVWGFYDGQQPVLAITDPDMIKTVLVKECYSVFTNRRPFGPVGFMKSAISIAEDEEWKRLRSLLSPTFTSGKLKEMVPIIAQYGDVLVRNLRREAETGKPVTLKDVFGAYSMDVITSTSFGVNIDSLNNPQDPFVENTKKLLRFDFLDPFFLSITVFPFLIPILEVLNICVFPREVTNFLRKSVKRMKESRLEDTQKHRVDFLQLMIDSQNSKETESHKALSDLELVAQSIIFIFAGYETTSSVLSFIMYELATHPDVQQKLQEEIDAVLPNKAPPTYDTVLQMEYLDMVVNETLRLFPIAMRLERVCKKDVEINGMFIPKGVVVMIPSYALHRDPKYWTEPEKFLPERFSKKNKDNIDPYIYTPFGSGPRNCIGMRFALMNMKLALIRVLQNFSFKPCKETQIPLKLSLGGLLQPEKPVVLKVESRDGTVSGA

in vitro = settings: human
recombinant human CYP3A5 = recombinant human CYP3A5 (Homo sapiens, UniProt P20815); settings: recombinant enzyme, pH 7.4
[4] = In vitro in vivo extrapolation to fetal liver; set-up: species or system human
CYP17A1 = settings: microsomes from CYP17A1-transfected COS1 cells; ref [11]; cited from earlier work
[5] = target: T1, recombinant CYP19A1 (aromatase) (Homo sapiens, UniProt P11511); assay: Progesterone incubation with recombinant CYP19A1; type: in vitro ADME; settings: progesterone 100 μM, CYP19A1 25 pmol, data not shown
T1 sequence (P11511 1-503): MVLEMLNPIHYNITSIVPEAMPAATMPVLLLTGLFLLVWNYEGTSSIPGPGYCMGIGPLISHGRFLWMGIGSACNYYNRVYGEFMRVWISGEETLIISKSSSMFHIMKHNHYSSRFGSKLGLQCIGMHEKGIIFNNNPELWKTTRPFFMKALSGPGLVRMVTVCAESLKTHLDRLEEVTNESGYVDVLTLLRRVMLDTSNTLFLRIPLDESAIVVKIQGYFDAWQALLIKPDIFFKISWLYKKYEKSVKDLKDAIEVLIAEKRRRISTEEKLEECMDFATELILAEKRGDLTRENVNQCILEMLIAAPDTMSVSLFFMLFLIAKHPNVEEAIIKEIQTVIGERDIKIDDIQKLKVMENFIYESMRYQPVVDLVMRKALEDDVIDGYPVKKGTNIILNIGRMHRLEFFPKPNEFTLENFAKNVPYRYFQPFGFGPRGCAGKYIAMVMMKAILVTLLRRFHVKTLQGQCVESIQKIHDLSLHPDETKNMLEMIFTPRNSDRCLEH

[6] = In vitro in vivo extrapolation to maternal liver; set-up: species or system human
recombinant CYP2A6 = target: T2, recombinant CYP2A6 (Homo sapiens, UniProt P11509); assay: Progesterone incubation with recombinant CYP2A6; type: in vitro ADME; settings: recombinant CYP2A6, data not shown
T2 sequence (P11509 1-494): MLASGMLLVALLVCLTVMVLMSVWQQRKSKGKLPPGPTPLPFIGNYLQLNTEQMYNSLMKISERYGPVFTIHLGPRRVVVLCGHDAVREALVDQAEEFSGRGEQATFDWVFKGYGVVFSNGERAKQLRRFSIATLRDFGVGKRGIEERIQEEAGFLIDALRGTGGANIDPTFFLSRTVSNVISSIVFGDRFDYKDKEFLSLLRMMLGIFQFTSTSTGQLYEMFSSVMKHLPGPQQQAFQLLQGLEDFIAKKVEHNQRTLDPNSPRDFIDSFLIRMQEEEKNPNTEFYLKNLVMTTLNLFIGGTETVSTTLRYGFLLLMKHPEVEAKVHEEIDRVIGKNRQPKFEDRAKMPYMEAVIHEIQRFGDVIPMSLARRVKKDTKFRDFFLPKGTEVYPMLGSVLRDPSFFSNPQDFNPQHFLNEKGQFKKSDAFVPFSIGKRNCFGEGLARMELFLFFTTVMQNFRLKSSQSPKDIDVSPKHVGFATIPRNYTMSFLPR

not read = substrate: CC(=O)[C@H]1CC[C@H]2[C@@H]3CCC4=CC(=O)CC[C@]4(C)[C@H]3CC[C@]12C; assay: not read; settings: other: rCYP3A5 20 pmol, progesterone 20–250 μM; mean ± SE (95% CI); pH 7.4
[7] = substrate: CC(=O)[C@H]1CC[C@H]2[C@@H]3CCC4=CC(=O)CC[C@]4(C)[C@H]3CC[C@]12C
[8] = HLMs 0.5 mg/mL, progesterone 20–250 μM, 30 min, mean ± SE
[9] = Fetal, CYP3A5*0*0 (nonexpresser)
[10] = Maternal, CYP3A5*0*0 (nonexpresser)

In the case of CC(=O)[C@H]1CC[C@H]2[C@@H]3C[C@@H](O)C4=CC(=O)CC[C@]4(C)[C@H]3CC[C@]12C [6β-OHP, 6β-hydroxyprogesterone], the “effect on oxytocin-induced uterine contractility frequency” value [1] is given as “increased” and the “further metabolism on incubation with HLMs” value ([2]; metabolite incubated with HLMs, data not shown) is given as “did not yield additional metabolism products”.

For CC(=O)[C@H]1[C@H](O)C[C@H]2[C@@H]3CCC4=CC(=O)CC[C@]4(C)[C@H]3CC[C@@]21C [16α-OHP, 16α-hydroxyprogesterone], the “effect on oxytocin-induced uterine contractility frequency” value [1] is listed as “decreased”.

In the case of CC(=O)[C@H]1CC[C@H]2[C@@H]3CCC4=CC(=O)CC[C@]4(C)[C@H]3CC[C@]12C [progesterone, Progesterone], the “intrinsic clearance (CLint), 6β-OHP formation” value [3] is reported as 59.2 μL/min/mg protein, the “Vmax for formation of 6β-OHP” value [2, 8] is reported as 1640±111 pmol/min/mg protein and the “Vmax for formation of 16α-OHP” value [2, 8] is reported as 192.1 ± 8.9 pmol/min/mg protein. The “6β-OHP Vmax” value (recombinant human CYP3A4) was 22.3 ± 1.1 (20.1–24.6) pmol/min/pmol protein, the “6β-OHP CLint” value (recombinant human CYP3A4; recombinant enzyme) was 2.3 μL/min/pmol protein and the “enzymatic activity (CLint) for 6β-OHP, CYP3A4 relative to CYP3A5” value (recombinant human CYP3A4; recombinant enzyme) was 25 fold. For the same molecule, the Km at 30 min (in vitro; pH 7.4, Km for formation of 6β-OHP) was 27.7 ± 8.1 µM, the Km at 30 min (in vitro; pH 7.4, Km for formation of 16α-OHP) was 29.8 ± 5.7 µM and the “activity (CLint) for 6β-OHP, CYP3A5 relative to CYP3A7” value (recombinant human CYP3A5) was 23 fold. For the same molecule, the “6β-OHP formed, fetuses expressing active CYP3A5 relative to nonexpressers” value [4] was ~ 3 times, the “clearance from fetal liver relative to maternal liver” value [4] was “less than 0.1%” and the “6β-OHP CLf” value [4, 9] was 0.19 L/h. For the same molecule, the “16α-OHP CLf” value [4, 9] was 0.13 L/h, the “CLint, H” value [4, 9] was 0.32 L/h and the “Vmax for 16α-OHP formation” value (CYP17A1) was 0.12 nmol/h/mg protein. For the same molecule, the “Vmax for 17α-OHP formation” value (CYP17A1) was 0.46 nmol/h/mg protein, the “formation of 6β-OHP and 16α-OHP metabolites” value [5] was “minimal formation” and the “6β-OHP CLf” value [6, 10] was 624 L/h. The “16α-OHP CLf” value [6, 10] was 346 L/h, the “CLint, H” value [6, 10] was 970 L/h and the “6β-OHP formation relative to 16α-OHP” value ([6]; maternal, CYP3A5 expressers) was 2 fold. The “reduction in clearance of progesterone in CYP3A5 nonexpressers” value ([6]; maternal, vs CYP3A5 expressers) was 5% and the metabolite formation (recombinant CYP2A6) was “did not produce detectable metabolites”.

B1: recombinant human CYP3A5 (Homo sapiens) (protein)
chain: MDLIPNLAVETWLLLAVSLVLLYLYGTRTHGLFKRLGIPGPTPLPLLGNVLSYRQGLWKFDTECYKKYGKMWGTYEGQLPVLAITDPDVIRTVLVKECYSVFTNRRSLGPVGFMKSAISLAEDEEWKRIRSLLSPTFTSGKLKEMFPIIAQYGDVLVRNLRREAEKGKPVTLKDIFGAYSMDVITGTSFGVNIDSLNNPQDPFVESTKKFLKFGFLDPLFLSIILFPFLTPVFEALNVSLFPKDTINFLSKSVNRMKKSRLNDKQKHRLDFLQLMIDSQNSKETESHKALSDLELAAQSIIFIFAGYETTSSVLSFTLYELATHPDVQQKLQKEIDAVLPNKAPPTYDAVVQMEYLDMVVNETLRLFPVAIRLERTCKKDVEINGVFIPKGSMVVIPTYALHHDPKYWTEPEEFRPERFSKKKDSIDPYIYTPFGTGPRNCIGMRFALMNMKLALIRVLQNFSFKPCKETQIPLKLDTQGLLQPEKPIVLKVDSRDGTLSGE
With B1 the Km (not read) was 72.5 ± 24.3 (19.5–125) μM and 60.2 ± 11.9 (40.2–89.7) μM, the kcat (not read) was 0.00367 s⁻¹ and the kcat/Km (not read) was 50 M⁻¹ s⁻¹.

B2: recombinant human CYP3A7 (Homo sapiens) (protein)
chain: MDLIPNLAVETWLLLAVSLILLYLYGTRTHGLFKKLGIPGPTPLPFLGNALSFRKGYWTFDMECYKKYRKVWGIYDCQQPMLAITDPDMIKTVLVKECYSVFTNRRPFGPVGFMKNAISIAEDEEWKRIRSLLSPTFTSGKLKEMVPIIAQYGDVLVRNLRREAETGKPVTLKHVFGAYSMDVITSTSFGVSIDSLNNPQDPFVENTKKLLRFNPLDPFVLSIKVFPFLTPILEALNITVFPRKVISFLTKSVKQIKEGRLKETQKHRVDFLQLMIDSQNSKDSETHKALSDLELMAQSIIFIFAGYETTSSVLSFIIYELATHPDVQQKVQKEIDTVLPNKAPPTYDTVLQLEYLDMVVNETLRLFPVAMRLERVCKKDVEINGMFIPKGVVVMIPSYVLHHDPKYWTEPEKFLPERFSKKNKDNIDPYIYTPFGSGPRNCIGMRFALVNMKLALVRVLQNFSFKPCKETQIPLKLRFGGLLLTEKPIVLKAESRDETVSGA
In the case of B2, the Km [7] is reported as 43.8 ± 31.0 (6.4–199) μM and 44.4 ± 23.5 (15.1–116) μM, the kcat [7] is reported as 0.00167 s⁻¹ and 0.00333 s⁻¹ and the kcat/Km [7] is reported as 50 M⁻¹ s⁻¹ and 66.7 M⁻¹ s⁻¹.

Reference: PMC5704987 (Fetal and pediatric pathology, 2017)
